In patent publication US5324648A, “Substituted isocoumarins as serine protease inhibitors and anti-inflammatory agents” (Georgia Tech Research Corporation, priority 1992, dated 1994):
Read-outs that look alike come from different tables or passages of the source.

What was measured:
[1] = target: T1, human leukocyte elastase (HLE) (Homo sapiens, UniProt P08246); experiment: Inactivation of human leukocyte elastase (HLE); format: biochemical
T1 construct: from tissue; host or cells: human leukocytes (from the name)
T1 sequence (P08246 30-267): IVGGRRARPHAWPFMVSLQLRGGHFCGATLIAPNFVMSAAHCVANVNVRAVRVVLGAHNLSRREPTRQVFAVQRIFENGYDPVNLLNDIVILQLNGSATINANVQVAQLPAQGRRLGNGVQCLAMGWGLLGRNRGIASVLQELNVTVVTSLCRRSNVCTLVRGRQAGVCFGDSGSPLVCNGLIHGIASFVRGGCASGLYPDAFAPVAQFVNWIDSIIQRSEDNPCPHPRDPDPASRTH

[2] = target: T2, porcine pancreatic elastase (PPE) (Sus scrofa, UniProt P00772); experiment: Inactivation of porcine pancreatic elastase (PPE); format: biochemical
T2 construct: from tissue; host or cells: porcine pancreas (from the name)
T2 sequence (P00772 27-266): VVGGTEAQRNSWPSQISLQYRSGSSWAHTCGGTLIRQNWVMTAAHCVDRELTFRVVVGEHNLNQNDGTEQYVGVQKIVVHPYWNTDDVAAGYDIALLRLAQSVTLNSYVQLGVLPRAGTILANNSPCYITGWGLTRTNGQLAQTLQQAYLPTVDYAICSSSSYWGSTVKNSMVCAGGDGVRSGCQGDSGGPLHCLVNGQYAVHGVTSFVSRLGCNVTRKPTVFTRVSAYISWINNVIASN

[3] = Table XI, pH 7.5, 25° C, [I] 1.4-6.6 μM, per line, read-out: kobs/[I]
[4] = Table XI, pH 7.5, 25° C, [I] 6.3-600 μM, per line, read-out: kobs/[I]
[5] = pH 7.5, Table XII, 2.5% Me2SO, 25° C, [I] 0.7-1.9 μM, read-out: kobs/[I]

Row | Compound | kinact/KI [1, 3] [M⁻¹ s⁻¹] | kinact/KI [2, 4] [M⁻¹ s⁻¹] | other results
1 | COc1oc(=O)c2cc(NC(=O)NCC(C)C)ccc2c1Cl | 20000 | 3200 | –
2 | COc1oc(=O)c2cc(NC(=O)CC(CC(=O)O)c3ccccc3)ccc2c1Cl (stereo not drawn) [7-(3-phenylglutaryl)amino-4-chloro-3-methoxyisocoumarin] | 66000 | 3100 | –
3 | COc1oc(=O)c2cc(NC(=O)N(CCc3ccccc3)Cc3ccccc3)ccc2c1Cl [7-(N-benzyl-N-phenylethylcarbamoyl)amino-4-chloro-3-methoxyisocoumarin] | 12000 | 17 | –
4 | COc1oc(=O)c2cc(NC(=O)C(NS(=O)(=O)c3ccc(C)cc3)c3ccccc3)ccc2c1Cl (stereo not drawn) [7-(N-tosyl-α-phenylglycyl)amino-4-chloro-3-methoxyisocoumarin] | 84000 | 1500 | –
5 | COC(=O)Nc1cccc(C(=O)Nc2ccc3c(Cl)c(OC)oc(=O)c3c2)c1 [7-(m-methoxycarbonylaminobenzoyl)amino-4-chloro-3-methoxyisocoumarin] | 100000 | 2500 | –
6 | COC(=O)c1ccccc1C(=O)Nc1ccc2c(Cl)c(OC)oc(=O)c2c1 [7-(o-methoxyphthalyl)amino-4-chloro-3-methoxyisocoumarin] | – | 7100 | –
7 | COc1oc(=O)c2cc(NC(=O)c3ccccc3C(=O)O)ccc2c1Cl [7-(o-phthalyl)amino-4-chloro-3-methoxyisocoumarin] | 52000 | 2700 | –
8 | CCNC(=O)Nc1ccc2c(Cl)c(OC)oc(=O)c2c1 [7-EtNHCONH-4-chloro-3-methoxyisocoumarin, 7-ethylcarbamoylamino-4-chloro-3-methoxyisocoumarin] | – | 1700 | –
9 | CCOC(=O)Nc1ccc2c(Cl)c(OC)oc(=O)c2c1 [7-EtOCONH-4-chloro-3-methoxyisocoumarin, 7-ethoxycarbonylamino-4-chloro-3-methoxyisocoumarin] | 47000 | 2000 | –
10 | COc1oc(=O)c2cc(NC(=O)OCC3c4ccccc4-c4ccccc43)ccc2c1Cl [7-Fmoc-NH-4-chloro-3-methoxyisocoumarin, 7-(9-fluorenylmethoxycarbonyl)amino-4-chloro-3-methoxyisocoumarin] | 10000 | 20 | –
11 | COc1oc(=O)c2cc(NC(N)=O)ccc2c1Cl [7-H2 NCONH-4-chloro-3-methoxyisocoumarin, 7-carbamoylamino-4-chloro-3-methoxyisocoumarin] | – | 2100 | –
12 | COc1oc(=O)c2cc(N=C=O)ccc2c1Cl [7-NCO-4-chloro-3-methoxyisocoumarin, 7-isocyanato-4-chloro-3-methoxyisocoumarin] | – | – | kinact/KI ([1]; pH 7.5, read-out: kobs/[I]): 9200 M⁻¹ s⁻¹; kinact/KI ([2]; pH 7.5, read-out: kobs/[I]): 650 M⁻¹ s⁻¹
13 | COc1oc(=O)c2cc(NC(=O)Nc3ccccc3)ccc2c1Cl [7-PhNHCONH-4-chloro-3-methoxyisocoumarin, 7-phenylcarbamoylamino-4-chloro-3-methoxyisocoumarin] | 49000 | 7300 | –
14 | COc1oc(=O)c2cc(NC(=O)Oc3ccccc3)ccc2c1Cl [7-PhOCONH-4-chloro-3-methoxyisocoumarin, 7-phenoxycarbonylamino-4-chloro-3-methoxyisocoumarin] | – | – | kinact/KI ([1]; pH 7.5, read-out: kobs/[I]): 13000 M⁻¹ s⁻¹; kinact/KI ([2]; pH 7.5, read-out: kobs/[I]): 850 M⁻¹ s⁻¹
15 | CCCOc1oc(=O)c2cc(NC(=S)NCc3ccccc3)ccc2c1Cl [7-benzylthiocarbamoylamino-4-chloro-3-propyloxyisocoumarin] | – | – | kinact/KI [1, 5]: > 131000 M⁻¹ s⁻¹
16 | CCOC(=O)Nc1ccc2c(Cl)c(OCC)oc(=O)c2c1 [7-ethoxycarbonylamino-4-chloro-3-ethoxyisocoumarin] | – | 3500 | –
17 | CCNC(=S)Nc1ccc2c(Cl)c(OCC)oc(=O)c2c1 [7-ethylthiocarbamoylamino-4-chloro-3-ethoxyisocoumarin] | – | 4200 | –
18 | CCOc1oc(=O)c2cc(NC(=S)Nc3ccccc3)ccc2c1Cl [7-phenylthiocarbamoylamino-4-chloro-3-ethoxyisocoumarin] | – | 12000 | –
19 | CCCOc1oc(=O)c2cc(NC(=S)Nc3ccccc3)ccc2c1Cl [7-phenylthiocarbamoylamino-4-chloro-3-propyloxyisocoumarin] | – | – | kinact/KI [1, 5]: > 166000 M⁻¹ s⁻¹
